Measured values reported in the kinase profiling compilation of Christmann-Franck et al. (2016).

Experiments:
Assay in all cases: KINOMEscan competition binding
Settings in all cases: compound 0.5 µM
[1] = biological target: STK32C (human) (UniProt Q86UX6)
[2] = biological target: NEK4 (human) (UniProt P51957)
[3] = biological target: MAP2K6 (human) (UniProt P52564)
[4] = biological target: DYRK1A (human) (UniProt Q13627)
[5] = biological target: CDK7 (human) (UniProt P50613)
[6] = biological target: STK11 (human) (UniProt Q15831)
[7] = biological target: MAP4K2 (human) (UniProt Q12851)
Chain of MAP4K2 (human) (Q12851 whole entry, looked up): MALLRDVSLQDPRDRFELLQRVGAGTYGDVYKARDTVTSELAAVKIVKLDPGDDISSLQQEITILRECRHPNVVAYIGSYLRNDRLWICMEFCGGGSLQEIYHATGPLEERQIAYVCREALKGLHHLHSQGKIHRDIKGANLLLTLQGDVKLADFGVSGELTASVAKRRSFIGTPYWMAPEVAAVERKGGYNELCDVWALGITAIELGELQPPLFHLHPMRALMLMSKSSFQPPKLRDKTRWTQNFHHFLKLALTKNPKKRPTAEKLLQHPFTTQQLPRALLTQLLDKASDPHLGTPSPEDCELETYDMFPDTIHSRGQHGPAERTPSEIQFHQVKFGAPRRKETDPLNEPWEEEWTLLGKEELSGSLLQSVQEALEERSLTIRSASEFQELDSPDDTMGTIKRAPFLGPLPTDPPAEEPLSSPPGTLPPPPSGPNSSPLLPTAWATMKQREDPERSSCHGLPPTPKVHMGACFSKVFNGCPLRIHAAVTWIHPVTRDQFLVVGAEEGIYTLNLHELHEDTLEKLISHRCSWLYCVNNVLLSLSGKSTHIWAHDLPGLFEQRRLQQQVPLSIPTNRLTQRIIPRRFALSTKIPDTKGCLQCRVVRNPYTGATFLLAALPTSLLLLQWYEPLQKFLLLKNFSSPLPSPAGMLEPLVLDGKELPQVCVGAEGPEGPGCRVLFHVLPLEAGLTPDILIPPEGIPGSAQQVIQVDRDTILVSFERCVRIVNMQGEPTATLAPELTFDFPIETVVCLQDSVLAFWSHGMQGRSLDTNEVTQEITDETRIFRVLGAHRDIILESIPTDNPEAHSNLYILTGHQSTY

[8] = biological target: MYLK4 (human) (UniProt Q86YV6)
[9] = biological target: PKN2 (human) (UniProt Q16513)
[10] = biological target: PDGFRA (human) (UniProt P16234)
[11] = biological target: PKN3 (M.tuberculosis) (UniProt Q6P5Z2)
[12] = biological target: MAPKAPK5 (human) (UniProt Q8IW41)
[13] = biological target: MAP4K1 (human) (UniProt Q92918)
[14] = biological target: EPHA8 (human) (UniProt P29322)
[15] = biological target: MAPK12 (human) (UniProt P53778)
[16] = system: FGFR3 (human), P22607 [G697C]
[17] = biological target: CDK2 (human) (UniProt P24941)
[18] = biological target: RPS6KA4 KD1 (human) (UniProt O75676)
Chain of RPS6KA4 KD1 (human) (O75676 whole entry, looked up): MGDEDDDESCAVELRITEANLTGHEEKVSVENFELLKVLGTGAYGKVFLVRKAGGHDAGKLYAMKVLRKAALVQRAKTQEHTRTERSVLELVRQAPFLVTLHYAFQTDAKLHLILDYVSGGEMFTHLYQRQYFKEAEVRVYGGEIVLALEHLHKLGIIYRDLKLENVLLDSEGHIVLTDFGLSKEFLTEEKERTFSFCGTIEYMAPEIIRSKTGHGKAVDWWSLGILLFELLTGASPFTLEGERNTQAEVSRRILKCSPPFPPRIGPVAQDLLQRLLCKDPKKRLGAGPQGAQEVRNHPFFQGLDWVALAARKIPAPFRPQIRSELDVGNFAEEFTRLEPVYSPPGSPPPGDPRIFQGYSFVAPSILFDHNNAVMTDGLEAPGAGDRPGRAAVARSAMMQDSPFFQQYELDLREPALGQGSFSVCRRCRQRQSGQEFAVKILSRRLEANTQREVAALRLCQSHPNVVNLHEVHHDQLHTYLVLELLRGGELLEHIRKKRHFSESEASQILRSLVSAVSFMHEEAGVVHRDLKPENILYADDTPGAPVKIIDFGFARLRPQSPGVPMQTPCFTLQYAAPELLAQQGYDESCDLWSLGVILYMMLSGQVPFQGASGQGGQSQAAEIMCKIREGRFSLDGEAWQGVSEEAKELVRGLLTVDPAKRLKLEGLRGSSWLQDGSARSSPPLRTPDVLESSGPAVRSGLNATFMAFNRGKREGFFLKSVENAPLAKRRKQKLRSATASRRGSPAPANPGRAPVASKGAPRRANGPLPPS

[19] = biological target: HIPK4 (human) (UniProt Q8NE63)
[20] = biological target: MTOR (human) (UniProt P42345)
[21] = system: PIK3CA (human), P42336 [E542K]
Chain of PIK3CA (human), P42336 [E542K] (P42336 whole entry E542K, looked up): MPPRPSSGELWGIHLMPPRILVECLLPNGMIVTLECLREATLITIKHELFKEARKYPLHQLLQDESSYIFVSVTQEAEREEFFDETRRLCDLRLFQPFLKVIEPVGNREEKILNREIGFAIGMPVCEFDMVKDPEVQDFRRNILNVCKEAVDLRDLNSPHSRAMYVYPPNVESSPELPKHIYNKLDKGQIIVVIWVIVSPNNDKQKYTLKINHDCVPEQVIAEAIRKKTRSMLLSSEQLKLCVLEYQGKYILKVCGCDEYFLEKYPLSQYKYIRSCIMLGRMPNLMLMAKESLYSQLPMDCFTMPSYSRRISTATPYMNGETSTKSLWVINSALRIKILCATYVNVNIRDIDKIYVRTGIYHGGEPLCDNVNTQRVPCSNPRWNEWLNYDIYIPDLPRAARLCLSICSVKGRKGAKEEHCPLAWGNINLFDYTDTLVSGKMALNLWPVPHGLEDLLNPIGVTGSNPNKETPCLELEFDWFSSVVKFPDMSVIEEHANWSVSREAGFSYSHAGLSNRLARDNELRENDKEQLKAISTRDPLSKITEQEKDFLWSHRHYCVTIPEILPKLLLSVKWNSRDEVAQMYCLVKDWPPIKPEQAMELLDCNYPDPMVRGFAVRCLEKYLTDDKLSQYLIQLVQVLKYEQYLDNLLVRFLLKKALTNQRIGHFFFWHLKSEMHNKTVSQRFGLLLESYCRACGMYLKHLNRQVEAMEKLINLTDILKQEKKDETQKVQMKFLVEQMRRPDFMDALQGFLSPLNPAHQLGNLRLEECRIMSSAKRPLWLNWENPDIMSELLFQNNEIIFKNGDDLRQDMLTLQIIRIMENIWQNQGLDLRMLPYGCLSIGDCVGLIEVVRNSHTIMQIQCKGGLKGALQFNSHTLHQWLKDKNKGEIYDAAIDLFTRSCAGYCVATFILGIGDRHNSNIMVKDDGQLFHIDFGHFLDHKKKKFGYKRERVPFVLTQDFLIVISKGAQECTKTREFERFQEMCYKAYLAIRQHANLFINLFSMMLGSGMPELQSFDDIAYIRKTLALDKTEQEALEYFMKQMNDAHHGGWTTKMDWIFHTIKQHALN

[22] = biological target: TIE1 (human) (UniProt P35590)
[23] = biological target: PAK4 (human) (UniProt O96013)
[24] = biological target: STK32A (human) (UniProt Q8WU08)
Chain of STK32A (human) (Q8WU08 whole entry, looked up): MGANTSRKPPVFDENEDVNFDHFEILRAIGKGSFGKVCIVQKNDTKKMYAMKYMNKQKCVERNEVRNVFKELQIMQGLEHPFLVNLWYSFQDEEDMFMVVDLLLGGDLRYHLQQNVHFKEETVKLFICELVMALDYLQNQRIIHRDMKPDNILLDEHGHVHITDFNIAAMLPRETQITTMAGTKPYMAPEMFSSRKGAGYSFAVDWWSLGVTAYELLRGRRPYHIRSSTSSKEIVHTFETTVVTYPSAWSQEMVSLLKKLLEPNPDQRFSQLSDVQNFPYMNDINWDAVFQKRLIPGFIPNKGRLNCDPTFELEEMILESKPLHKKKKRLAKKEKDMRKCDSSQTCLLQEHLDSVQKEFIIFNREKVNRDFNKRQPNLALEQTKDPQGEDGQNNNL

[25] = biological target: MAP3K1 (human) (UniProt Q13233)
[26] = biological target: CSNK1D (human) (UniProt P48730)
[27] = biological target: PRKCI (human) (UniProt P41743)
[28] = biological target: FES (human) (UniProt P07332)
[29] = biological target: MAPKAPK2 (human) (UniProt P49137)
[30] = biological target: PRKD1 (human) (UniProt Q15139)
[31] = biological target: BMPR2 (human) (UniProt Q13873)
[32] = biological target: CSK (human) (UniProt P41240)
Chain of CSK (human) (P41240 whole entry, looked up): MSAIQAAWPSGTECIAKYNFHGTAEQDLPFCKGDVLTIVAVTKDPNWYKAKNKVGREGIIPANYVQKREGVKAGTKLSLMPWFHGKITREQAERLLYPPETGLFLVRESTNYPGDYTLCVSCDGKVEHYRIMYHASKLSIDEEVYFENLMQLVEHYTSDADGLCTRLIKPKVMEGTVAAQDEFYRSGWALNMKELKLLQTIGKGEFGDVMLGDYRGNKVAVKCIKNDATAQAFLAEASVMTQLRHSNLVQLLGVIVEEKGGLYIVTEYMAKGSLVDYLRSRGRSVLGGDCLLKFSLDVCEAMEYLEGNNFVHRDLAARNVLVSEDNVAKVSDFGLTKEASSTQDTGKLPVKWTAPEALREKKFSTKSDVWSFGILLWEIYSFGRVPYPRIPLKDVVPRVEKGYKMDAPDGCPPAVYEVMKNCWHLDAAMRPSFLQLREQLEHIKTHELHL

[33] = biological target: LATS2 (human) (UniProt Q9NRM7)
[34] = biological target: FGR (human) (UniProt P09769)
[35] = biological target: CDK19 (human) (UniProt Q9BWU1)
[36] = system: PIK3CA (human), P42336 [H1047L]
Chain of PIK3CA (human), P42336 [H1047L] (P42336 whole entry H1047L, looked up): as the sequence (P42336 whole entry E542K, looked up) above, with K542E, H1047L counted along it

[37] = biological target: CAMK2G (human) (UniProt Q13555)
[38] = biological target: NEK9 (human) (UniProt Q8TD19)
[39] = biological target: DDR1 (human) (UniProt Q08345)
[40] = biological target: MAPK15 (human) (UniProt Q8TD08)
[41] = biological target: MST1R (human) (UniProt Q04912)
[42] = biological target: FGFR2 (human) (UniProt P21802)
Chain of FGFR2 (human) (P21802 whole entry, looked up): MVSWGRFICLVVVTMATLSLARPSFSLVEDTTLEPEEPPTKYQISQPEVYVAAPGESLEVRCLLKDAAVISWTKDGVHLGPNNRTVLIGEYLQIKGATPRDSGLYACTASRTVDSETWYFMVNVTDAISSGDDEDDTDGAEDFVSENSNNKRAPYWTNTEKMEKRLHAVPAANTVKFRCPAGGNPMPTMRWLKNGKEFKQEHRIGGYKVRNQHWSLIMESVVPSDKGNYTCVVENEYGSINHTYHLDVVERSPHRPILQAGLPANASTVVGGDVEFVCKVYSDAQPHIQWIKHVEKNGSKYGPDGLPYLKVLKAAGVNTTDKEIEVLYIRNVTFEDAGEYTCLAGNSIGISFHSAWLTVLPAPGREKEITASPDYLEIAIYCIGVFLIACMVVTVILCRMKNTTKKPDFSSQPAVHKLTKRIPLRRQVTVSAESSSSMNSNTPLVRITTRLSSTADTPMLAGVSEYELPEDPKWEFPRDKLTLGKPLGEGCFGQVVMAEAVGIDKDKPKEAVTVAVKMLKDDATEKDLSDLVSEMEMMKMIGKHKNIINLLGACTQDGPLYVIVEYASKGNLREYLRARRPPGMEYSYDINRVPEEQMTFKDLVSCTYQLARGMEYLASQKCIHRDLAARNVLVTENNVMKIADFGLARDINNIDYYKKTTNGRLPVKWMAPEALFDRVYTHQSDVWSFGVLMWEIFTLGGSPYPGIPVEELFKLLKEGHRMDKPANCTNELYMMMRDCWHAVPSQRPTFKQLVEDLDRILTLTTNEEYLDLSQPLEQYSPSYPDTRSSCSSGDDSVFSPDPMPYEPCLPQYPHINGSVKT

Chain of MAP2K6 (human) (P52564 whole entry, looked up): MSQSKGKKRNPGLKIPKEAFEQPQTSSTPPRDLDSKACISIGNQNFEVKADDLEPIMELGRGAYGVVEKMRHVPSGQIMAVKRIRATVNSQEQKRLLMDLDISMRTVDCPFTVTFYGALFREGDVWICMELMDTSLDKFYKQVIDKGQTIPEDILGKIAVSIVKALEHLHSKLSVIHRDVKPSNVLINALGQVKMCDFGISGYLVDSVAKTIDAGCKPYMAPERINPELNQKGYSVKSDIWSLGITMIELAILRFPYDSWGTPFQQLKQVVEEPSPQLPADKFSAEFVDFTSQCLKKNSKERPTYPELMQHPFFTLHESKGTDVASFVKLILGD

Which results are given for `Cn1c2ccccc2c2c3c(c4c5ccccc5n(CCC#N)c4c21)CNC3=O`?
kinase still bound, per cent of control [1]: 100%; kinase still bound, per cent of control [2]: 100%; kinase still bound, per cent of control [3]: 15%; kinase still bound, per cent of control [4]: 6.4%; kinase still bound, per cent of control [5]: 84%; kinase still bound, per cent of control [6]: 4.4%; kinase still bound, per cent of control [7]: 1.1%; kinase still bound, per cent of control [8]: 17%; kinase still bound, per cent of control [9]: 12%; kinase still bound, per cent of control [10]: 100%; kinase still bound, per cent of control [11]: 100%; kinase still bound, per cent of control [12]: 100%; kinase still bound, per cent of control [13]: 33%; kinase still bound, per cent of control [14]: 90%; kinase still bound, per cent of control [15]: 68%; kinase still bound, per cent of control [16]: 100%; kinase still bound, per cent of control [17]: 36%; kinase still bound, per cent of control [18]: 46%; kinase still bound, per cent of control [19]: 8%; kinase still bound, per cent of control [20]: 52%; kinase still bound, per cent of control [21]: 100%; kinase still bound, per cent of control [22]: 100%; kinase still bound, per cent of control [23]: 4%; kinase still bound, per cent of control [24]: 94%; kinase still bound, per cent of control [25]: 100%; kinase still bound, per cent of control [26]: 81%; kinase still bound, per cent of control [27]: 86%; kinase still bound, per cent of control [28]: 85%; kinase still bound, per cent of control [29]: 100%; kinase still bound, per cent of control [30]: 24%; kinase still bound, per cent of control [31]: 100%; kinase still bound, per cent of control [32]: 100%; kinase still bound, per cent of control [33]: 36%; kinase still bound, per cent of control [34]: 84%; kinase still bound, per cent of control [35]: 91%; kinase still bound, per cent of control [36]: 43%; kinase still bound, per cent of control [37]: 41%; kinase still bound, per cent of control [38]: 100%; kinase still bound, per cent of control [39]: 100%; kinase still bound, per cent of control [40]: 0.45%; kinase still bound, per cent of control [41]: 100%; kinase still bound, per cent of control [42]: 95%
